{"source": "patent US7399823B1", "about": "“Antimicrobial theta defensins and methods of using same” (The Regents of the University of California, priority 2000, dated 2008)", "assay_type_in_all_cases": "cell-based", "key": {"[1]": {"test_system": "Listeria monocytogenes EDG", "experiment": "Microbicidal suspension assay, killing quantified by colony counts", "details": "for % killed: RTD-1 10 mg/ml, 2 h, 37 C."}, "[2]": {"test_system": "Staphylococcus aureus 502a", "experiment": "Microbicidal suspension assay, killing quantified by colony counts", "details": "for % killed: 37 C.", "method": "Killing was quantified by colony counts.\nAdditional antimicrobial assays were conducted on other microbial organisms. […] In FIG. […] Killing was quantified by colony counts. […] The limit of detection (1 colony per plate) was equal to 1×10^3 colony forming units in the incubation mixture.\nIt has been proposed that salt sensitivity of airway defensins underlies the susceptibility of cystic fibrosis patients to pulmonary infections.\n(§1) An acyclic version of theta defensin was also tested for antimicrobial activity. […] Killing activity was quantified by colony counts after 18 hrs.\n(§2) The microbicidal activity in the presence of physiological salt concentrations was tested against various microorganisms in various buffers."}, "Candida albicans": {"test_system": "Candida albicans", "experiment": "Microbicidal suspension assay, killing quantified by colony counts"}, "[3]": {"test_system": "Staphylococcus aureus 502a", "experiment": "Agar diffusion assay", "method": "(§3) The purified chromatographic peaks were screened for antibacterial activity against Escherichia coli ML35 and Staphylococcus aureus 502a. Briefly, antibacterial activity was screened with an agar diffusion assay using lyophilized samples of HPLC fractions dissolved in 5 μl of 0.01% acetic acid as described by Lehrer et al., J. Immunol. Methods 137:167-173 (1991)).\n(§4) Agar diffusion assays and microbicidal suspension assays were used to examine the activity of theta defensin against Staphylococcus aureus 502A, Escherichia coli ML35, Listeria monocytogenes, and Cryptococcus neoformans."}, "Escherichia coli ML35 [4]": {"test_system": "Escherichia coli ML35", "experiment": "Agar diffusion assay", "method": "as §3, §4"}, "Cryptococcus neoformans": {"test_system": "Cryptococcus neoformans", "experiment": "Agar diffusion assay", "details": "10, 30, 100 or 300 μg/ml; agar seeded with 1×10^6 colony forming units", "description": "as §4"}, "Listeria monocytogenes": {"test_system": "Listeria monocytogenes", "experiment": "Agar diffusion assay", "details": "10, 30, 100 or 300 μg/ml; agar seeded with 1×10^6 colony forming units", "description": "as §4"}, "[5]": {"test_system": "Cryptococcus neoformans 271a", "experiment": "Microbicidal suspension assay, killing quantified by colony counts", "details": "for % killed: RTD-1 10 mg/ml, 2 h, 37 C."}, "Escherichia coli ML35 [6]": {"test_system": "Escherichia coli ML35", "experiment": "Microbicidal suspension assay, killing quantified by colony counts", "details": "for % killed: 2 h, 37 C.", "method": "Additional antimicrobial assays were conducted on other microbial organisms. […] In FIG. 9A, S. aureus 502a was incubated with increasing concentrations of natural or synthetic peptide for 30 min at 37° C. in 10 mM PIPES, pH 7.4, containing 5 mM glucose. Killing was quantified by colony counts. […] The limit of detection (1 colony per plate) was equal to 1×10^3 colony forming units in the incubation mixture.\nas §1, §2"}, "[7]": {"test_system": "Salmonella typhimurium, PhoP^−", "experiment": "Microbicidal suspension assay, killing quantified by colony counts", "details": "2 hr, 10 mM PIPES, pH 7.4, 5 mM glucose; FIG. 9"}, "[8]": {"details": "2 hr, 10 mM PIPES, pH 7.4, 5 mM glucose, FIG. 9"}, "[9]": {"details": "10 mM PIPES, pH 7.4, 5 mM glucose, 150 mM NaCl"}, "[10]": {"details": "10, 30, 100 or 300 μg/ml, agar seeded with 1×10^6 colony forming units"}}, "note": "Marks after values point to notes of the source that are not given here. Positions of bridges follow the written chain, without caps; N, C: chain ends. Residues, ends and D or L forms follow the SMILES beside them."}
{"smiles": "CC[C@H](C)[C@@H]1NC(=O)[C@@H]2CSSC[C@H](NC(=O)[C@H](CCCNC(=N)N)NC(=O)[C@@H]3CSSC[C@H](NC1=O)C(=O)N[C@@H]([C@@H](C)O)C(=O)N[C@@H](CCCNC(=N)N)C(=O)NCC(=O)N[C@@H](Cc1ccccc1)C(=O)N3)C(=O)N[C@@H](CC(C)C)C(=O)N[C@H]1CSSC[C@H](NC(=O)[C@H](C(C)C)NC(=O)CNC(=O)[C@H](CCCNC(=N)N)NC(=O)[C@H](CCCNC(=N)N)NC1=O)C(=O)N[C@@H](CCCNC(=N)N)C(=O)N2", "note": "[RTD-1] (cyclo(GFCRCLCRRGVCRCICTR); disulfide 3-16, 5-14, 7-12)", "values": [{"measurement": "microbicidal activity (killing)", "setting": "[1]; [8]", "result": "killed"}, {"measurement": "% killed", "setting": "[1]; [9]", "result": ">99.99", "unit": "%"}, {"measurement": "% killed", "setting": "[1]; 10 mM Tris HCl, pH 7.4, 150 mM NaCl", "result": ">99.99", "unit": "%"}, {"measurement": "effect of NaCl on staphylocidal activity", "setting": "[2]; 10 μg/ml peptide, 2 h, NaCl concentrations as high as 150 mM", "result": "little effect"}, {"measurement": "microbicidal activity (killing)", "setting": "[2]; 10 mM PIPES, pH 7.4, 5 mM glucose, 37° C., FIG. 9", "result": "killed"}, {"measurement": "% killed", "setting": "[2]; 2 h, 10 mM PIPES, pH 7.4, 5 mM glucose, 150 mM NaCl, 1-2 × 10^6 CFU/ml", "result": ">99", "unit": "%"}, {"measurement": "% killed", "setting": "[2]; 2 h, 10 mM Tris-HCl, pH 7.4, 150 mM NaCl", "result": ">99.99", "unit": "%"}, {"measurement": "peptide concentration reducing colony counts to below the level of detection", "setting": "[2]; 2 h at 37° C. in 10 mM PIPES, pH 7.4", "result": "≥ 4", "unit": "µg/mL"}, {"measurement": "% killed", "setting": "[2]; RTD-1 25 mg/ml, 2 h, 10 mM Tris-HCl, pH 7.4, 50% human AB serum", "result": ">99* %"}, {"measurement": "microbicidal activity (killing)", "setting": "Candida albicans; [8]", "result": "killed"}, {"measurement": "% killed", "setting": "Candida albicans; RTD-1 10 mg/ml, 2 h, 37 C., 10 mM Tris HCl, pH 7.4, 150 mM NaCl", "result": ">98", "unit": "%"}, {"measurement": "zone of inhibition", "setting": "[3]; [10]", "result": "dose dependent increase"}, {"measurement": "antibacterial activity compared with the other leukocyte peptides isolated", "setting": "[3]; screen of purified HPLC peaks", "result": "greatest activity"}, {"measurement": "zone of inhibition", "setting": "Escherichia coli ML35 [4]; [10]", "result": "dose dependent increase"}, {"measurement": "antibacterial activity compared with the other leukocyte peptides isolated", "setting": "Escherichia coli ML35 [4]; screen of purified HPLC peaks", "result": "greatest activity"}, {"measurement": "zone of inhibition", "setting": "Cryptococcus neoformans", "result": "dose dependent increase"}, {"measurement": "zone of inhibition", "setting": "Listeria monocytogenes", "result": "dose dependent increase"}, {"measurement": "microbicidal activity (killing)", "setting": "[5]; [8]", "result": "killed"}, {"measurement": "% killed", "setting": "[5]; [9]", "result": ">99.99", "unit": "%"}, {"measurement": "% killed", "setting": "[5]; 10 mM Tris-HCl, pH 7.4, 150 mM NaCl", "result": ">99.99", "unit": "%"}, {"measurement": "microbicidal activity (killing)", "setting": "Escherichia coli ML35 [6]; [8]", "result": "killed"}, {"measurement": "% killed", "setting": "Escherichia coli ML35 [6]; RTD-1 25 mg/ml, 10 mM Tris-HCl, pH 7.4, 25% human AB serum", "result": ">99* %"}, {"measurement": "% killed", "setting": "Escherichia coli ML35 [6]; RTD-1, 10 mM PIPES, pH 7.4, 5 mM glucose, 150 mM NaCl", "result": ">99", "unit": "%"}, {"measurement": "% killed", "setting": "Escherichia coli ML35 [6]; RTD-1, 10 mM Tris-HCl, pH 7.4, 150 mM NaCl", "result": ">99.99", "unit": "%"}, {"measurement": "activity of cyclic form relative to acyclic form", "setting": "Escherichia coli ML35 [6]; gram negative bacteria (E. coli)", "result": "about three times more active"}, {"measurement": "microbicidal activity (killing)", "setting": "[7]", "result": "killed"}]}
